Patent US12390532B2, “ALK protein regulator and anti-tumor application thereof” (SHANGHAITECH UNIVERSITY, priority 2019, dated 2025)

System: SR cells (NPM-ALK, human anaplastic large cell lymphoma cells)
Test: Proliferation inhibition (IC50) in SR cells, CCK8 (WST) reagent
Assay type: cell-based
Settings: 72 h, read-out: IC50 (half inhibitory concentration), Alectinib series in lymphoma cell lines, SR cells, WST reagent, 72 hours
Protocol: The ALK gene rearrangement positive cell line used was SR cells (NPM-ALK, human anaplastic large cell lymphoma cells). MDA-MB231 was a triple-negative breast cancer cell. Both SR cells and MDA-MB231 cells were purchased from ATCC.
The tumor cell line used was daily cultured in a 37° C. incubator containing 5% CO2. The medium was RPMI1640 supplemented with 10% FCS and Penicillin-Streptomycin.
The IC50 of the compound of the present disclosure was determined using Promega's Cell Titer Blue, Cell Titer GLO or commercially available WST reagents. The specific steps were as follows: the cells were seeded in a 96-well plate containing 100 microliters of RPMI medium containing serum at a number of 2000 cells/well. On the second day, the original drug and the compound of the present disclosure were serially diluted and added to the cells. After 72 hours of treatment with the compound of the present disclosure, the cell activity detection reagent was added to the culture medium for cell activity determination according to the instructions. The negative control was DMSO, and the positive control was the original drug, and the cells were treated in the same manner as the compound of the present disclosure. The growth inhibition of the compounds of the present disclosure on cells was plotted by Prism Graphpad software and the IC50 of the compounds of the present disclosure was counted from it.
We conducted dose-dependent experiments on the designed and synthesized compounds of the present disclosure in SR cells. […] The cells were treated with different concentrations of compounds (starting at 10 μM, 3 times dilution factor, 10 concentrations). After 72 hours, the cells were detected using CCK8 reagent (WST).

Row | SMILES | IC50 [nM]
1 | CCc1cc2c(cc1N1CCC(N3CCNCC3)CC1)C(C)(C)c1[nH]c3cc(C#N)ccc3c1C2=O [Alectinib derivative C (SIAIS184192), 9-Ethyl-6,6-dimethyl-11-oxo-8-(4-(piperazin-1-yl)piperidin-1-yl)-6,11-dihydro-5H-benzo[b]carbazole-3-carbonitrile] | 10.1 ± 4.3
2 | CCc1cc2c(cc1N1CCC(N3CCN(C(=O)CCCNc4cccc5c4CN(C4CCC(=O)NC4=O)C5=O)CC3)CC1)C(C)(C)c1[nH]c3cc(C#N)ccc3c1C2=O (stereo not drawn) [SIAIS262092, 8-(4-(4-(4-((2-(2,6-dioxopiperidin-3-yl)-1-oxoisoindolin-4-yl)amino)butyryl)piperazin-1-yl)piperidin-1-yl)-9-ethyl-6,6-dimethyl-11-oxo-6,11-dihydro-5H-benzo[b]carbazole-3-carbonitrile] | 1.37 ± 0.87
3 | CCc1cc2c(cc1N1CCC(N3CCN(C(=O)CCCCCCNc4cccc5c4CN(C4CCC(=O)NC4=O)C5=O)CC3)CC1)C(C)(C)c1[nH]c3cc(C#N)ccc3c1C2=O (stereo not drawn) [SIAIS262095, 8-(4-(4-(7-((2-(2,6-dioxopiperidin-3-yl)-1-oxoisoindolin-4-yl)amino)heptanoyl)piperazin-1-yl)piperidin-1-yl)-9-ethyl-6,6-dimethyl-1-oxo-6,11-dihydro-5H-benzo[b]carbazole-3-carbonitrile] | 3.2 ± 1.93
4 | CCc1cc2c(cc1N1CCC(N3CCN(CCCCC#Cc4cccc5c4CN(C4CCC(=O)NC4=O)C5=O)CC3)CC1)C(C)(C)c1[nH]c3cc(C#N)ccc3c1C2=O (stereo not drawn) [SIAIS293002, 8-(4-(4-(6-(2-(2,6-dioxopiperidin-3-yl)-1-oxoisoindolin-4-yl)hex-5-yn-1-yl)piperazin-1-yl)piperidin-1-yl)-9-ethyl-6,6-dimethyl-11-oxo-6,11-dihydro-5H-benzo[b]carbazole-3-carbonitrile] | 2.9
5 | CCc1cc2c(cc1N1CCC(N3CCN(CCCCCCCC#Cc4cccc5c4CN(C4CCC(=O)NC4=O)C5=O)CC3)CC1)C(C)(C)c1[nH]c3cc(C#N)ccc3c1C2=O (stereo not drawn) [SIAIS293004, 8-(4-(4-(9-(2-(2,6-dioxopiperidin-3-yl)-1-oxoisoindolin-4-yl)non-8-yn-1-yl)piperazin-1-yl)piperidin-1-yl)-9-ethyl-6,6-dimethyl-11-oxo-6,11-dihydro-5H-benzo[b]carbazole-3-carbonitrile] | 9.5
6 | CCc1cc2c(cc1N1CCC(N3CCN(CCCCCNc4cccc5c4C(=O)N(C4CCC(=O)NC4=O)C5=O)CC3)CC1)C(C)(C)c1[nH]c3cc(C#N)ccc3c1C2=O (stereo not drawn) [SIAIS293008, 8-(4-(4-(5-((2-(2,6-dioxopiperidin-3-yl)-1,3-dioxoisoindolin-4-yl)amino)pentyl)piperazin-1-yl)piperidin-1-yl)-9-ethyl-6,6-dimethyl-11-oxo-6,11-dihydro-5H-benzo[b]carbazole-3-carbonitrile] | 5.2

Results, then the compound that gave them:

Row | IC50 [nM] | SMILES
7 | 9.1 ± 5.5 | CCc1cc2c(cc1N1CCC(N)CC1)C(C)(C)c1[nH]c3cc(C#N)ccc3c1C2=O [Alectinib derivative B (SIAIS184193), 8-(4-aminopiperidin-1-yl)-9-ethyl-6,6-dimethyl-11-oxo-6,11-dihydro-5H-benzo[b]carbazole-3-carbonitrile]
8 | 2.65 ± 1.72 | CCc1cc2c(cc1N1CCC(N3CCN(C(=O)CCCCNc4cccc5c4CN(C4CCC(=O)NC4=O)C5=O)CC3)CC1)C(C)(C)c1[nH]c3cc(C#N)ccc3c1C2=O (stereo not drawn) [SIAIS262093, 8-(4-(4-(5-((2-(2,6-dioxopiperidin-3-yl)-1-oxoisoindolin-4-yl)amino)pentanoyl)piperazin-1-yl)piperidin-1-yl)-9-ethyl-6,6-dimethyl-11-oxo-6,11-dihydro-5H-benzo[b]carbazole-3-carbonitrile]
9 | 1.9 | CCc1cc2c(cc1N1CCC(N3CCN(CCCCc4cccc5c4CN(C4CCC(=O)NC4=O)C5=O)CC3)CC1)C(C)(C)c1[nH]c3cc(C#N)ccc3c1C2=O (stereo not drawn) [SIAIS293005, 8-(4-(4-(4-(2-(2,6-dioxopiperidin-3-yl)-1-oxoisoindolin-4-yl)butyl)piperazin-1-yl)piperidin-1-yl)-9-ethyl-6,6-dimethyl-11-oxo-6,11-dihydro-5H-benzo[b]carbazole-3-carbonitrile]
